The values below come from patent publication US20070155827A1, “USE OF BENZO-FUSED HETEROCYCLE SULFAMIDE DERIVATIVES FOR THE TREATMENT OF DEPRESSION” (priority 2005, published 2007).

In the assay the test system is CH3/HeJ mice. Description: Mouse Tail Suspension Assay (Acute), TST. In kind it is in vivo. As to conditions: p.o.; for ED50: Mus musculus, po, 7 min, 7-min session. The protocol:
In the tail suspension test (TST) for evaluating compounds for anti-depressant activity, mice are suspended by their tails to a metal or plastic rod using clip or scotch tape. The test is usually quite short, 5-7 min, and the amount of time the mice spend immobile is recorded either manually or with an automated device. Agents which have antidepressant activity, decrease the duration of immobility of mice in this test.
The basic apparatus for the tail suspension assay consisted of a yellow plastic chamber (91×45×10 cm) divided for four arenas 25, 20, 20 and 25 cm wide separated by yellow plastic walls 0.75 cm thick. Mice were suspended by their tails using a rubber clip (7 cm long) attached to the plastic rod that was placed on the top of a testing chamber half way through its deep dimension. Each experimental session was videotaped and analyzed for four animals in the real time by computer software (“Depression Scan” Clever Sys Inc.). The computer justification of immobility was calibrated with the use of animals dosed with lorazepam while justification of movement was calibrated with the high dose of desipramine treated animals. Control, vehicle treated animals and animals treated with Compound #8 were analyzed under the calibrated settings. The settings were adjusted separately for dark (CH3/HeJ and C57Bl/6J strains) and white mice (Balb/cJ and A/J strains). A yellow background was used for dark mice and a blue background was used to record movements of white mice.
The ability of a test compound to decrease the duration of immobility, or increase mobility was measured using the TST procedure described above. Acute treatment with clinically effective antidepressants and/or novel compounds that have potential antidepressant properties decrease the duration of immobility and at the same time increases mobility in the TST.
Data were analyzed using GraphPad Prism software (GraphPad Software, Inc. San Diego, Calif.). For the comparison of the effect of different doses for various drugs on immobility in the TST one-way analyses of variance (ANOVA) were used followed by Dunnett's multiple comparison test. […] The ED50 and Emax values were compared using two-way ANOVA and Bonferroni post-hoc test.
Positive controls included duloxetine (DLX), venlafaxine (VLX)and desipramine (DMI) which were dissolved in 0.5% methylcellulose and lorazepam (LOR) which was suspended in 0.5% of methylcellulose in water by sonication. All drugs and vehicles were administered orally (p.o.) by gavage in a volume of 10 mL/kg.
The mice were ordered 5 weeks old and at the beginning of experiment their weight was 20±5 g. Animals were housed in groups of four in plastic cages at an ambient temperature of 21° C. to 23° C. with an automated 12/12 hours light/dark cycle and access to water and a commercial rodent food ad libitum.
Each experiment consisted of seven treatment groups with four animals per group. A total of 28 animals per experiment were used. Every two consecutive experiments (1 & 2, 3 & 4, 5 & 6 and 7 & 8) were exact replicas of each other. […] One treatment group of four animals in each experiment was a vehicle treated group. In addition to the vehicle treated group, the effects of DMI at 6 mg/kg, 12 mg/kg, 30 mg/kg, 60 mg/kg and 120 mg/kg and LOR at 5 mg/kg were tested in experiments 1 and 2. […] In experiments 5 and 6 the effects of DLX at 6 mg/kg, 12 mg/kg, 30 mg/kg, 60 mg/kg, 120 mg/kg and LOR at 5 mg/kg were tested. […]

Entries after “also recorded” stand apart in the source; their conditions may differ. Like-named read-outs stand apart in the source and are kept apart here.

Take `NS(=O)(=O)NC[C@H]1COc2cc(Cl)ccc2O1` [Compound #8, (2S)-(−)-N-(6-Chloro-2,3-dihydro-benzo[1,4]dioxin-2-ylmethyl)-sulfamide]: the ED50 runs as follows: (read-out: Immobility ED50) 5.6 mg/kg; (read-out: Mobility ED50) 3.6 ± 2.9 mg/kg. Also, the “effect on immobility and mobility time in TST” value (7-min testing session) is “decreased immobility time and increased mobility time; also recorded: antidepressant-like activity”.

As a reminder, the ED50 is the dose that gives a 50% effect, or the effect in half of the subjects.
